Key:
[1] = target: T1, EPHA7 (Homo sapiens, UniProt Q15375); assay: HTRF/ADP-Glo kinase selectivity panel; type: biochemical; conditions: 500 nM, read-out: 1D228(%inhibition)@500nM
T1 construct: purchased Invitrogen (c-Met, TRKA, TRKB, TRKC)
Procedure: (§1) The compound was serial diluted from 10 mM stock in DMSO, dilute the test compound to 0.1 mM (200 times the specified test concentration). 2 × ATP & Substrate solution and 2 × kinase & Metal solution were prepared using assay buffer; Transfer 25 nL compound to 384 assay plate by Echo 655; After centrifugation, add 2.5 μL 2 × kinase/metal ion solution 384 assay plate, and incubate at 25 °C for 10 min. 2 × XL665 & Antibody solution were prepared with detection buffer; 5 μL of Kinase Detection Reagent was added to the well, and incubated for 60 min at 25 °C; The fluorescence signals of 620 nm (Cryptate) and 665 nm (XL665) were read by microtiter plate reader; […]

[2] = target: T2, EPHA3 (Homo sapiens, UniProt P29320); assay: HTRF/ADP-Glo kinase selectivity panel; type: biochemical; conditions: 500 nM, read-out: 1D228(%inhibition)@500nM
T2 construct: purchased Invitrogen (c-Met, TRKA, TRKB, TRKC)
Procedure: as §1

[3] = target: T3, FLT3 (Homo sapiens, UniProt P36888); assay: HTRF/ADP-Glo kinase selectivity panel; type: biochemical; conditions: 500 nM, read-out: 1D228(%inhibition)@500nM
T3 construct: purchased Invitrogen (c-Met, TRKA, TRKB, TRKC)
Procedure: as §1

[4] = target: T4, ACK (Homo sapiens, UniProt Q07912); assay: HTRF/ADP-Glo kinase selectivity panel; type: biochemical; conditions: 500 nM, read-out: 1D228(%inhibition)@500nM
T4 construct: purchased Invitrogen (c-Met, TRKA, TRKB, TRKC)
Procedure: as §1

[5] = target: T5, RON (Homo sapiens, UniProt Q04912); assay: HTRF/ADP-Glo kinase selectivity panel; type: biochemical; conditions: 500 nM, read-out: 1D228(%inhibition)@500nM
T5 construct: purchased Invitrogen (c-Met, TRKA, TRKB, TRKC)
Procedure: as §1

[6] = target: T6, BRK (Homo sapiens, UniProt Q13882); assay: HTRF/ADP-Glo kinase selectivity panel; type: biochemical; conditions: 500 nM, read-out: 1D228(%inhibition)@500nM
T6 construct: purchased Invitrogen (c-Met, TRKA, TRKB, TRKC)
Procedure: as §1

[7] = target: T7, ALK (Homo sapiens, UniProt Q9UM73); assay: HTRF/ADP-Glo kinase selectivity panel; type: biochemical; conditions: 500 nM, read-out: 1D228(%inhibition)@500nM
T7 construct: purchased Invitrogen (c-Met, TRKA, TRKB, TRKC)
Procedure: as §1

[8] = target: T8, LYNb (Homo sapiens, UniProt P07948); assay: HTRF/ADP-Glo kinase selectivity panel; type: biochemical; conditions: 500 nM, read-out: 1D228(%inhibition)@500nM
T8 construct: purchased Invitrogen (c-Met, TRKA, TRKB, TRKC)
Procedure: as §1

[9] = target: T9, TRKA (Homo sapiens, UniProt P04629); assay: HTRF/ADP-Glo kinase selectivity panel; type: biochemical; conditions: 500 nM, read-out: 1D228(%inhibition)@500nM
T9 construct: purchased Invitrogen (c-Met, TRKA, TRKB, TRKC)
Procedure: as §1

[10] = target: T10, EPHB1 (Homo sapiens, UniProt P54762); assay: HTRF/ADP-Glo kinase selectivity panel; type: biochemical; conditions: 500 nM, read-out: 1D228(%inhibition)@500nM
T10 construct: purchased Invitrogen (c-Met, TRKA, TRKB, TRKC)
Procedure: as §1

[11] = target: T11, TRKC (Homo sapiens, UniProt Q16288); assay: HTRF/ADP-Glo kinase selectivity panel; type: biochemical; conditions: 500 nM, read-out: 1D228(%inhibition)@500nM
T11 construct: purchased Invitrogen (c-Met, TRKA, TRKB, TRKC)
Procedure: as §1

[12] = target: T12, JAK1 (Homo sapiens, UniProt P23458); assay: HTRF/ADP-Glo kinase selectivity panel; type: biochemical; conditions: 500 nM, read-out: 1D228(%inhibition)@500nM
T12 construct: purchased Invitrogen (c-Met, TRKA, TRKB, TRKC)
Procedure: as §1

[13] = target: T13, TIE2 (Homo sapiens, UniProt Q02763); assay: HTRF/ADP-Glo kinase selectivity panel; type: biochemical; conditions: 500 nM, read-out: 1D228(%inhibition)@500nM
T13 construct: purchased Invitrogen (c-Met, TRKA, TRKB, TRKC)
Procedure: as §1

[14] = target: T14, KIT (Homo sapiens, UniProt P10721); assay: HTRF/ADP-Glo kinase selectivity panel; type: biochemical; conditions: 500 nM, read-out: 1D228(%inhibition)@500nM
T14 construct: purchased Invitrogen (c-Met, TRKA, TRKB, TRKC)
Procedure: as §1

[15] = target: T15, EPHA4 (Homo sapiens, UniProt P54764); assay: HTRF/ADP-Glo kinase selectivity panel; type: biochemical; conditions: 500 nM, read-out: 1D228(%inhibition)@500nM
T15 construct: purchased Invitrogen (c-Met, TRKA, TRKB, TRKC)
Procedure: as §1

[16] = target: T16, FRK (Homo sapiens, UniProt P42685); assay: HTRF/ADP-Glo kinase selectivity panel; type: biochemical; conditions: 500 nM, read-out: 1D228(%inhibition)@500nM
T16 construct: purchased Invitrogen (c-Met, TRKA, TRKB, TRKC)
Procedure: as §1

[17] = target: T17, ABL2 (Homo sapiens, UniProt P42684); assay: HTRF/ADP-Glo kinase selectivity panel; type: biochemical; conditions: 500 nM, read-out: 1D228(%inhibition)@500nM
T17 construct: purchased Invitrogen (c-Met, TRKA, TRKB, TRKC)
Procedure: as §1

[18] = target: T18, LCK (Homo sapiens, UniProt P06239); assay: HTRF/ADP-Glo kinase selectivity panel; type: biochemical; conditions: 500 nM, read-out: 1D228(%inhibition)@500nM
T18 construct: purchased Invitrogen (c-Met, TRKA, TRKB, TRKC)
Procedure: as §1

[19] = target: T19, FGR (Homo sapiens, UniProt P09769); assay: HTRF/ADP-Glo kinase selectivity panel; type: biochemical; conditions: 500 nM, read-out: 1D228(%inhibition)@500nM
T19 construct: purchased Invitrogen (c-Met, TRKA, TRKB, TRKC)
Procedure: as §1

[20] = target: T20, DDR2 (Homo sapiens, UniProt Q16832); assay: HTRF/ADP-Glo kinase selectivity panel; type: biochemical; conditions: 500 nM, read-out: 1D228(%inhibition)@500nM
T20 construct: purchased Invitrogen (c-Met, TRKA, TRKB, TRKC)
Procedure: as §1

[21] = target: T21, EPHB4 (Homo sapiens, UniProt P54760); assay: HTRF/ADP-Glo kinase selectivity panel; type: biochemical; conditions: 500 nM, read-out: 1D228(%inhibition)@500nM
T21 construct: purchased Invitrogen (c-Met, TRKA, TRKB, TRKC)
Procedure: as §1

[22] = target: T22, HCK (Homo sapiens, UniProt P08631); assay: HTRF/ADP-Glo kinase selectivity panel; type: biochemical; conditions: 500 nM, read-out: 1D228(%inhibition)@500nM
T22 construct: purchased Invitrogen (c-Met, TRKA, TRKB, TRKC)
Procedure: as §1

[23] = target: T23, MUSK (Homo sapiens, UniProt O15146); assay: HTRF/ADP-Glo kinase selectivity panel; type: biochemical; conditions: 500 nM, read-out: 1D228(%inhibition)@500nM
T23 construct: purchased Invitrogen (c-Met, TRKA, TRKB, TRKC)
Procedure: as §1

[24] = Liver microsomal stability assay; type: in vitro ADME; conditions: liver microsomes, pH 7.4
Procedure: The incubation system (including 0.1 M PH 7.4 phosphate buffer, NADPH generation system, UGT incubation system, 0.5 mg/mL liver microsomal protein and appropriate concentration of drug to be tested) was incubated in a water bath at 37 °C for […]. Each sample was incubated three times in parallel, and an equal volume of pre-chilled acetonitrile was added at preset reaction time points, such as 0, 5, 10, 15, 30 and 60 min. The reaction was terminated by the addition of acetonitrile. The remaining content of the prototype drug in the warm incubation solution was determined by HPLC, HPLC-MC and HPLC-MC/MC.

[25] = test system: MKN45 xenograft tumor; assay: MKN45 xenograft tumor model; type: in vivo, BALB/c nude mice; conditions: ig
Procedure: (§2) Male BALB/c nude mice (5-week old, 18–20 g) were purchased from Beijing Vital River Laboratory Animal Technology (Beijing Vital River LaboratoryAnimal Technology Co., Ltd., Beijing,China) and allowed to acclimate for 1 week, maintained at constant room temperature and fed a standard rodent chow and water. 1 × 10^7 cells/mL cancer cells grown in logarithmic phase were harvested and resuspended in FBS-free 1640 medium. Then, 100 μL of the cell suspension was subcutaneously injected into the right flank of each mouse. When the tumour volume was reached about 600–800 mm^3, it was removed, minced into small pieces of equal volume (2 × 2 × 2 mm^3), and transplanted subcutaneously into the nude mice. When the tumour volume was reached about 200–400 mm^3, the xenograft tumour-bearing nude mice were randomly allocated to five groups (vehicle-treated, 1D228-2mgd-treated, 1D228-4mgd-treated […] Tepotinib-treated groups, with 6 or 8 mice (The number of mice were determined according to previous experience on xenograft tumor models) per group. Each group was dosed by intragastric administration (ig) for 7–14 days. Tumour volume and body weights were recorded every day after drug treatment. At the end of the observation period, the animals were euthanized by cervical dislocation and the tumour bulks were peeled off conformed to the Guide for the Care and Use of Laboratory Animals as published by the US National Institutes of Health (NIH Publication No. 85-23, revised 1996) and approved by the Institutional Ethics Review Board of Binzhou Medical University. There was no blinding was done during the animal experiment. No animals were excluded from the analysis.

[26] = test system: MHCC97H xenograft tumor; assay: MHCC97H xenograft tumor model; type: in vivo, BALB/c nude mice; conditions: ig, calculated through tumor weight
Procedure: as §2

T22 sequence (P08631 whole entry): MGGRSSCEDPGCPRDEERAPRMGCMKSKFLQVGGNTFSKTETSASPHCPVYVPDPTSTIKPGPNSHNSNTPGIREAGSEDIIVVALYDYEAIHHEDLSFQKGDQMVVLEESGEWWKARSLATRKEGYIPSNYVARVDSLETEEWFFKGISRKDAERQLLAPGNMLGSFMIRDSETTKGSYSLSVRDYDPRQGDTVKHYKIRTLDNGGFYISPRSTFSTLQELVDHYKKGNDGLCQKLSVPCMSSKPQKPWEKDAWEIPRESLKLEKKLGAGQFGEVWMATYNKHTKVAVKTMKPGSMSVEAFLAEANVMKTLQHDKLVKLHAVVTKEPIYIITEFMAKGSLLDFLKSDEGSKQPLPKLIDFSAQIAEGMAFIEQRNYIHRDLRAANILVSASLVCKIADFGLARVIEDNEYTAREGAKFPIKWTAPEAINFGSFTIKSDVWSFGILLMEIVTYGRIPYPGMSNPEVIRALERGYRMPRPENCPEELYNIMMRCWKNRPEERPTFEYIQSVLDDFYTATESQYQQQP
T13 sequence (Q02763 23-1124): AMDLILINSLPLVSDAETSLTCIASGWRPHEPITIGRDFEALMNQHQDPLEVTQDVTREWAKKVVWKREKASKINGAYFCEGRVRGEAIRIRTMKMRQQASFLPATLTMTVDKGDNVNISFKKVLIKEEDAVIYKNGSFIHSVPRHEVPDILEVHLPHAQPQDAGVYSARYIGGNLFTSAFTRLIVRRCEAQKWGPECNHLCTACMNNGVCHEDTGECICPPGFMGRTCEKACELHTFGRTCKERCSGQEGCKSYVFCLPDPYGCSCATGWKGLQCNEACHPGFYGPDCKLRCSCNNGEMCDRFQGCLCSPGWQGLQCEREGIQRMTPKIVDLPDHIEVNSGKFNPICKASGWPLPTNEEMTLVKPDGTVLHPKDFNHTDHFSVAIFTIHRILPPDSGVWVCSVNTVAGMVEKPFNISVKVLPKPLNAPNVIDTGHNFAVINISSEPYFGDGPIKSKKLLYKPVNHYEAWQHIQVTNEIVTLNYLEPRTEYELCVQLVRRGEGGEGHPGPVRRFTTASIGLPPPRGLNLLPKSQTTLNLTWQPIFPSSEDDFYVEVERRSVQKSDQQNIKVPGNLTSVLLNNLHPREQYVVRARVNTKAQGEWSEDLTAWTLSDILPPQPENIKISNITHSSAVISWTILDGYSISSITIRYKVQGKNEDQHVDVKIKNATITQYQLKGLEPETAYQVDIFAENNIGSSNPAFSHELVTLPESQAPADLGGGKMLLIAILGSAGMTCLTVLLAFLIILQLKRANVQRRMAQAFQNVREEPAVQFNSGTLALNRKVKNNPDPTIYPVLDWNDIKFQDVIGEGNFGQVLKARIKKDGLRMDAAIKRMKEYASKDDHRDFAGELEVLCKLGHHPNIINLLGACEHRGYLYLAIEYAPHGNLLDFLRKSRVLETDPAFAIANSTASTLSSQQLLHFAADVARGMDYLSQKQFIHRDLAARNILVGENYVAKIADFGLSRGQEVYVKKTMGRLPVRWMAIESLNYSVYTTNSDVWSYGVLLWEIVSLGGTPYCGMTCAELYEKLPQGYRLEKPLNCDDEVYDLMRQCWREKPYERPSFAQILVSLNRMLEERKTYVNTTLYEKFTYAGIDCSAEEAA
T1 sequence (Q15375 28-998): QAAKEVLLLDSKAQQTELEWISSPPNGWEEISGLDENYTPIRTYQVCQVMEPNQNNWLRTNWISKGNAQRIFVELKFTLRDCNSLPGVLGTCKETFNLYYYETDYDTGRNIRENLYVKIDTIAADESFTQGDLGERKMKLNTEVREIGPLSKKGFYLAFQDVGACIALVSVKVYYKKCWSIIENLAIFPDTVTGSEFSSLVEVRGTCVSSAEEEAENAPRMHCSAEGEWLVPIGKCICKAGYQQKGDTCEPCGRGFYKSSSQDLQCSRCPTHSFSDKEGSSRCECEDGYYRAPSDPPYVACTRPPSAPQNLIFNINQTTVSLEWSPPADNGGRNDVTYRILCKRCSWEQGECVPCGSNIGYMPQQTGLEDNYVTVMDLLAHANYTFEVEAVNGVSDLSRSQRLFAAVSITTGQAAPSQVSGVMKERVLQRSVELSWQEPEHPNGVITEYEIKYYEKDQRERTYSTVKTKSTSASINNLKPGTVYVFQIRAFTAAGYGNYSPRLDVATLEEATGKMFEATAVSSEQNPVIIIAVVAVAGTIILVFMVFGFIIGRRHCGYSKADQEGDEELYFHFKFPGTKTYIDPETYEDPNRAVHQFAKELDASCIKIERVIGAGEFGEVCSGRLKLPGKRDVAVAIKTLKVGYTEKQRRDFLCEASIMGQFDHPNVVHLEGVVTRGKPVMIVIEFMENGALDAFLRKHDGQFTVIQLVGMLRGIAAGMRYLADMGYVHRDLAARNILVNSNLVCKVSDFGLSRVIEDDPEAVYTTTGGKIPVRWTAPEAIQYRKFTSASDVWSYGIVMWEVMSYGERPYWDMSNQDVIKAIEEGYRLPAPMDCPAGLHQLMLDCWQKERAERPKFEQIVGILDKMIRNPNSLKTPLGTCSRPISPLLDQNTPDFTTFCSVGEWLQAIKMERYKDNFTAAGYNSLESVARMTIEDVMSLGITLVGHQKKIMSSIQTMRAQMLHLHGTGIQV
T7 sequence (Q9UM73 19-1620): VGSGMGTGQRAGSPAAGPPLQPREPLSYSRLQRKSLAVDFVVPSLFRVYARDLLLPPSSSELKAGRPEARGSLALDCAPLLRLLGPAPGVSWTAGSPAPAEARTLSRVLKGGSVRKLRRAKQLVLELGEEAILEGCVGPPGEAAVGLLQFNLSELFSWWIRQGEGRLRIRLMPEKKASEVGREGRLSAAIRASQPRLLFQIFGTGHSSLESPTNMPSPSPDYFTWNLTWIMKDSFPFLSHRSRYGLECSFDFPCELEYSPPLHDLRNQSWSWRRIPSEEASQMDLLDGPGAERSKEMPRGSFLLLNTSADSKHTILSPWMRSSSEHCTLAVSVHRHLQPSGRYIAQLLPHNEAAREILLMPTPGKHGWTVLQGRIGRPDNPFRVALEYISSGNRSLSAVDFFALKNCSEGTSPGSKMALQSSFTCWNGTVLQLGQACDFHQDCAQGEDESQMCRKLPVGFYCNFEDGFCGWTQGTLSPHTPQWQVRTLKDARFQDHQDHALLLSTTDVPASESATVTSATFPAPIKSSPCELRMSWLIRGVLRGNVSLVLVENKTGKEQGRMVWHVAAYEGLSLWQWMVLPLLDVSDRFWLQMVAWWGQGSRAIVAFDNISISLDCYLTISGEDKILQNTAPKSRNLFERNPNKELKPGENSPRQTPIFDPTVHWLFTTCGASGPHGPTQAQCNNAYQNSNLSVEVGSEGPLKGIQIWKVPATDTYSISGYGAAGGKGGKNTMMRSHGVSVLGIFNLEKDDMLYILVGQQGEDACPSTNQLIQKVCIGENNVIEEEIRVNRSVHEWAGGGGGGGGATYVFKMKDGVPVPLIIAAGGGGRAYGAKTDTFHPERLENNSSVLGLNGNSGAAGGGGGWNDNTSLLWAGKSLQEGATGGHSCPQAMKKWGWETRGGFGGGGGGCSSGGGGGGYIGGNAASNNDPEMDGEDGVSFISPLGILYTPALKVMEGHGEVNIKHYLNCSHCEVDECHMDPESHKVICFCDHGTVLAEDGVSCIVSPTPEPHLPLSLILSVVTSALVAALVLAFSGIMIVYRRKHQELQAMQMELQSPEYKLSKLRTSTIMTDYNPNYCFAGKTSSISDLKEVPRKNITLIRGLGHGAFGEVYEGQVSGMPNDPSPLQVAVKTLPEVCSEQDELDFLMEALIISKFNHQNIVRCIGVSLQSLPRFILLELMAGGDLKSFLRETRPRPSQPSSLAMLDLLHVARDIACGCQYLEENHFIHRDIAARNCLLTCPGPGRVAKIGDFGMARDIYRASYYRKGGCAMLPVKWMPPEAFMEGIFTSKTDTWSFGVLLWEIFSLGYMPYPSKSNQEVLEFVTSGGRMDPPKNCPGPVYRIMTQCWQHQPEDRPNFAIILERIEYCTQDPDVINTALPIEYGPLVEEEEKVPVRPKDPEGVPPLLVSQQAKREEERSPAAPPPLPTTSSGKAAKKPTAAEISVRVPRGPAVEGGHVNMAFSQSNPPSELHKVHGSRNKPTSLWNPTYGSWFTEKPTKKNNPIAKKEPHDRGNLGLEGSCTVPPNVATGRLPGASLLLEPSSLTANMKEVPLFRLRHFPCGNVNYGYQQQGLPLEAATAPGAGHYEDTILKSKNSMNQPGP
T9 sequence (P04629 33-796): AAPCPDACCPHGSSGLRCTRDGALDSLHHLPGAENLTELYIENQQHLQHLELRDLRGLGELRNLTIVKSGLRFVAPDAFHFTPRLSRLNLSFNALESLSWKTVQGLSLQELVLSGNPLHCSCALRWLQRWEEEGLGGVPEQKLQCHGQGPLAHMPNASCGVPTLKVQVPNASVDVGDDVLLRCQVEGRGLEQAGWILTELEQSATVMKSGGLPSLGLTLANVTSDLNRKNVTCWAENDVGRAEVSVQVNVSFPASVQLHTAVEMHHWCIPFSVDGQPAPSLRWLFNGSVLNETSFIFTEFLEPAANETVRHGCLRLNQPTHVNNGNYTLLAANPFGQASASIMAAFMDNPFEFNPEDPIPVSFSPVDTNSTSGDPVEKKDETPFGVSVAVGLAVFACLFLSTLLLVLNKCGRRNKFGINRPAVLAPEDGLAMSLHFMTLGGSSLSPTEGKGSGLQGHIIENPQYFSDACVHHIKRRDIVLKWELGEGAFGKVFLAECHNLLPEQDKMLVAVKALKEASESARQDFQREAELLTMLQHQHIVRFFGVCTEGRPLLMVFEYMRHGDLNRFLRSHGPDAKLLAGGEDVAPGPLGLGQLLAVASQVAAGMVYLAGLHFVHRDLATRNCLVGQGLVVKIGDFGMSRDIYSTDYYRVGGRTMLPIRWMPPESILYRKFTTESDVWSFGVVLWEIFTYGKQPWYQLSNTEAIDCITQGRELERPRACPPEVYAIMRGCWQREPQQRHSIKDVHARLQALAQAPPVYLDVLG

[2H][C@@](C)(c1cccc(-c2ncc(OCC3CCN(C)CC3)cn2)c1)n1nc(-c2cccc(C#N)c2)ccc1=O [1D228]
inhibition at 0.5 µM [1]: -1.36% | inhibition at 0.5 µM [2]: -11.8% | inhibition at 0.5 µM [3]: 17.9% | inhibition at 0.5 µM [4]: 1.96% | inhibition at 0.5 µM [5]: 1.38% | inhibition at 0.5 µM [6]: 3.19% | inhibition at 0.5 µM [7]: 89.5% | inhibition at 0.5 µM [8]: 5.26% | inhibition at 0.5 µM [9]: 93.6% | inhibition at 0.5 µM [10]: -6.48% | inhibition at 0.5 µM [11]: 99% | inhibition at 0.5 µM [12]: 7.19% | inhibition at 0.5 µM [13]: -2.64% | inhibition at 0.5 µM [14]: -4.5% | inhibition at 0.5 µM [15]: -14.7% | inhibition at 0.5 µM [16]: 11.3% | inhibition at 0.5 µM [17]: 4.45% | inhibition at 0.5 µM [18]: 5.21% | inhibition at 0.5 µM [19]: -20.7% | inhibition at 0.5 µM [20]: -3.98% | inhibition at 0.5 µM [21]: 5.08% | inhibition at 0.5 µM [22]: -4.06% | inhibition at 0.5 µM [23]: 9.13% | half-life ([24]; cynomolgus monkey, Macaca fascicularis liver microsome): 27.6 h | half-life ([24]; mouse, CD - 1 mice liver microsome): 1.7 h | TGI ([25]; 2 mg/kg/d): 74.4% | TGI ([25]; 4 mg/kg/d): 90.7% | TGI ([25]; 8 mg/kg/d): 94.8% | Tumor growth inhibition (TGI) ([26]; 2 mg/kg): 81.2% | Tumor growth inhibition (TGI) ([26]; 4 mg/kg): 93.4% | Tumor growth inhibition (TGI) ([26]; 8 mg/kg): 98.2%
